According to ChEMBL document CHEMBL2203046, “Discovery of a novel non-steroidal GR antagonist with in vivo efficacy in the olanzapine-induced weight gain model in the rat” (Bioorg Med Chem Lett, 2012):

Key:
Rattus norvegicus [1] = assay: Antagonist activity at glucocorticoid receptor in Sprague-Dawley rat assessed as change in olanzapine-induced weight gain at 10 mg/kg/day, po administered as divided doses twice daily for 21 days (Rvb =+ 36.5 +/- 10 g); format: functional
Rattus norvegicus [2] = assay: Antagonist activity at glucocorticoid receptor in Sprague-Dawley rat assessed as change in olanzapine-induced weight gain at 6 mg/kg/day, po administered as divided doses twice daily for 21 days (Rvb =+ 36.5 +/- 10 g); format: functional
Rattus norvegicus [3] = assay: Antagonist activity at glucocorticoid receptor in Sprague-Dawley rat assessed as change in olanzapine-induced weight gain at 2 mg/kg/day, po administered as divided doses twice daily for 21 days (Rvb =+ 36.5 +/- 10 g); format: functional
Rattus norvegicus [4] = assay: Antagonist activity at glucocorticoid receptor in Sprague-Dawley rat assessed as change in olanzapine-induced weight gain at 0.2 mg/kg/day, po administered as divided doses twice daily for 21 days (Rvb =+ 36.5 +/- 10 g); format: functional
Rattus norvegicus [5] = assay: Antagonist activity at glucocorticoid receptor in Sprague-Dawley rat assessed as change in olanzapine-induced weight gain at 0.6 mg/kg/day, po administered as divided doses twice daily for 21 days (Rvb =+ 36.5 +/- 10 g); format: functional
[6] = Plasma protein binding in rat; format: ADME, cell-free; conditions: read-out: PPB
[7] = Plasma protein binding in human; format: ADME, cell-free; conditions: read-out: PPB
[8] = Half life in rat at 1 mg/kg, iv; format: ADME, organism-based; parameters: dose 1 mg/kg, route intravenous; conditions: in vivo
[9] = Oral bioavailability in rat at 5 mg/kg; format: ADME, organism-based; conditions: in vivo
[10] = Clearance in rat at 1 mg/kg, iv; format: ADME, organism-based; parameters: dose 1 mg/kg, route intravenous; conditions: in vivo
Cytochrome P450 2C19 = Cytochrome P450 2C19 (Homo sapiens, UniProt P33261); assay: Inhibition of human CYP2C19; format: ADME
Liver microsomes [11] = assay: Metabolic stability in human liver microsomes; format: ADME, Microsome
Liver microsomes [12] = assay: Metabolic stability in rat liver microsomes; format: ADME, Microsome
Cytochrome P450 1A2 = biological target: T1, Cytochrome P450 1A2 (Homo sapiens, UniProt P05177); assay: Inhibition of human CYP1A2; format: ADME
T1 sequence (P05177 whole entry): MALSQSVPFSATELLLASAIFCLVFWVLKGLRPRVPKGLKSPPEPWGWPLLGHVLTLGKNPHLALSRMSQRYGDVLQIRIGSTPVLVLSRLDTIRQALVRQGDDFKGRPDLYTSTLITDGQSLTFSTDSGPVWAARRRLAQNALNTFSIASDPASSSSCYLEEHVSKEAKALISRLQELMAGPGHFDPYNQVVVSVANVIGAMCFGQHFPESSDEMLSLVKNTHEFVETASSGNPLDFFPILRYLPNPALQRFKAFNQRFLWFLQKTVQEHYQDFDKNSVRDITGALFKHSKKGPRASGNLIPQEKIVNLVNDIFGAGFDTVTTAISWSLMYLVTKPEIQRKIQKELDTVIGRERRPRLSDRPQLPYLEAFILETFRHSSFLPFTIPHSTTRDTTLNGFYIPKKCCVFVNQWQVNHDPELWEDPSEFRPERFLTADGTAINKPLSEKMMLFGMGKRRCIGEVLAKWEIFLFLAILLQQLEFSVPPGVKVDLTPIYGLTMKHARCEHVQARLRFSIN

Cytochrome P450 2C9 = Cytochrome P450 2C9 (Homo sapiens, UniProt P11712); assay: Inhibition of human CYP2C9; format: ADME
Cytochrome P450 3A4 = Cytochrome P450 3A4 (Homo sapiens, UniProt P08684); assay: Inhibition of human CYP3A4; format: ADME
Cytochrome P450 2D6 = Cytochrome P450 2D6 (Homo sapiens, UniProt P10635); assay: Inhibition of human CYP2D6; format: ADME
Glucocorticoid receptor [13] = biological target: T2, Glucocorticoid receptor (Homo sapiens, UniProt P04150); assay: Antagonist activity at glucocorticoid receptor in human SW1353 cells assessed as inhibition of dexamethasone-induced luciferase expression after 16 hrs by MMTV5 reporter gene assay; format: functional, cell-based
T2 sequence (P04150 whole entry): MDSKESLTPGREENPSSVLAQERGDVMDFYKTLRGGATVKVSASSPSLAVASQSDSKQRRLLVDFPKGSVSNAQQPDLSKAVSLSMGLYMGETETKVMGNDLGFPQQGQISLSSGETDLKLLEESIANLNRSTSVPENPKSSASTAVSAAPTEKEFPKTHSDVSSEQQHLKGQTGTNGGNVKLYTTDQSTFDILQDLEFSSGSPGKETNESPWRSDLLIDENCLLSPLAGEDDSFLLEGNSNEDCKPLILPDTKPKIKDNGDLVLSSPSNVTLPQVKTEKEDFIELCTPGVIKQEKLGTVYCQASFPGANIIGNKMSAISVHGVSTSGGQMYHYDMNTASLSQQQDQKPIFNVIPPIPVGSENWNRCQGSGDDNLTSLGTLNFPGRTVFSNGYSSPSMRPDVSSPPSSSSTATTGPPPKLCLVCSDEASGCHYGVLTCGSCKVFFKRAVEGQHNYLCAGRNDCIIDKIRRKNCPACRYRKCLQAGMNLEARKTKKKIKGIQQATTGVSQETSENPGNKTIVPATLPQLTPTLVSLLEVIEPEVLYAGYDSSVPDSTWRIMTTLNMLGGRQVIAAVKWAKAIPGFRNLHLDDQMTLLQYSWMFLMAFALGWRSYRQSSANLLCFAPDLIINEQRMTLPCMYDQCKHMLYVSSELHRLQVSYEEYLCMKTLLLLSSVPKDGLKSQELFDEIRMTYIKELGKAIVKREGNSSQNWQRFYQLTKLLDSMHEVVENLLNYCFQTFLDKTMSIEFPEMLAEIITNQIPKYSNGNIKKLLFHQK

Glucocorticoid receptor [14] = biological target: T2, Glucocorticoid receptor; assay: Displacement of [3H]dexamethasone from human recombinant glucocorticoid receptor expressed in baculovirus after 18 hrs by scintillation counting analysis
Liver = assay: Metabolic stability in human liver microsomes

Sequence of Cytochrome P450 2C9 (P11712 whole entry): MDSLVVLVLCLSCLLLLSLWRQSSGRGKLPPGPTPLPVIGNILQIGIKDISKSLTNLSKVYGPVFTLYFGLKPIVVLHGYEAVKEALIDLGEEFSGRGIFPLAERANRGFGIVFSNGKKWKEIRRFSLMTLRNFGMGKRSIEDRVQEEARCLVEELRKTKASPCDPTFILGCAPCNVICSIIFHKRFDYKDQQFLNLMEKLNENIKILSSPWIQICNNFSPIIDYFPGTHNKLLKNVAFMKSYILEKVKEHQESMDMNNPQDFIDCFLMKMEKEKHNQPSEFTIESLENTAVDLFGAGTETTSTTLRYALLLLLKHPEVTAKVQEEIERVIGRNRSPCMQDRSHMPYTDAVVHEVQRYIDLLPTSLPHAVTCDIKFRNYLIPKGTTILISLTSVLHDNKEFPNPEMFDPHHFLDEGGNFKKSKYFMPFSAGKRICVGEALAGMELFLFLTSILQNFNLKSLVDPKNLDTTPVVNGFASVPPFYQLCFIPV
Sequence of Cytochrome P450 2D6 (P10635 whole entry): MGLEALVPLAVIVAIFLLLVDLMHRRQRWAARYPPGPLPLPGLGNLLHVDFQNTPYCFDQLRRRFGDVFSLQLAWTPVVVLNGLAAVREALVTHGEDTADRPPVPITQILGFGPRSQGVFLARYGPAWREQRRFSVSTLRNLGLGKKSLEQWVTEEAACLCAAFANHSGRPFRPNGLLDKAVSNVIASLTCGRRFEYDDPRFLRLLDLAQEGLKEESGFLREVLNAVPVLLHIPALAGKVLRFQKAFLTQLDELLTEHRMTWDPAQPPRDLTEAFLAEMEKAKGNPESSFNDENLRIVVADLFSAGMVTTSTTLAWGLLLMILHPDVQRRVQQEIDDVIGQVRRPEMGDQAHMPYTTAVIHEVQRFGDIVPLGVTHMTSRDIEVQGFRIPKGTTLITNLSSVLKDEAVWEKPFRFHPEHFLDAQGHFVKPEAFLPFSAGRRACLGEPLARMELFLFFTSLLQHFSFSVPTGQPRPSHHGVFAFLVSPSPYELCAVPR
Sequence of Cytochrome P450 2C19 (P33261 whole entry): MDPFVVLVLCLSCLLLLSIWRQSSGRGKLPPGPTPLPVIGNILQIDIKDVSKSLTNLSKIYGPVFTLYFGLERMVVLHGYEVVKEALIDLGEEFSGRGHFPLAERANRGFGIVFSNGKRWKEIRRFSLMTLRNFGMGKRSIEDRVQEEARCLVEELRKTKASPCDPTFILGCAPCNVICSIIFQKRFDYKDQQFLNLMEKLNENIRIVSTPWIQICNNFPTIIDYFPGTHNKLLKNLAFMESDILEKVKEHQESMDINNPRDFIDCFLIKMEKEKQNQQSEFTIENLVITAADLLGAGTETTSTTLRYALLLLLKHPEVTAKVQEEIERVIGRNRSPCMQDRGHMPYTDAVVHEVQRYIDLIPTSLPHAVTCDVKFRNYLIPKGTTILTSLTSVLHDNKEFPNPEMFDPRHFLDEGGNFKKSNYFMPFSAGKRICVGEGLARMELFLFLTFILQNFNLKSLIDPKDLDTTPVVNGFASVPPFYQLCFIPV
Sequence of Cytochrome P450 3A4 (P08684 whole entry): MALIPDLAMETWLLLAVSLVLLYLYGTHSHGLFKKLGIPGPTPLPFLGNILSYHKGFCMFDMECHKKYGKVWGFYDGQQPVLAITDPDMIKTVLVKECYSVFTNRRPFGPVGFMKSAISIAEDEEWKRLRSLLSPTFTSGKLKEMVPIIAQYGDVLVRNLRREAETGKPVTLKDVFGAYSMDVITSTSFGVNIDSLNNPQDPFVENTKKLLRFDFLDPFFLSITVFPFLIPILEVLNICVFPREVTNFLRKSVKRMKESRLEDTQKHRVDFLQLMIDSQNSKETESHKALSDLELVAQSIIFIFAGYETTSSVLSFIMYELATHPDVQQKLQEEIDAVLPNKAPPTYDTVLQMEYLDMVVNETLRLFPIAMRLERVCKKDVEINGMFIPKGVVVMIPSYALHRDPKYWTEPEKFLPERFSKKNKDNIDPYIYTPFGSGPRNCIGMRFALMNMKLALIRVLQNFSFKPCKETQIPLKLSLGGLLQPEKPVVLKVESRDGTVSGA

SMILES | Ki (Glucocorticoid receptor [13]) | Ki (Glucocorticoid receptor [14]) | also measured
O=c1[nH]c(=O)c(Cc2cccc(C(F)(F)F)c2)c([C@H]2CC[C@@H](c3ccccc3)CC2)[nH]1 | 24 nM | 8 nM | Activity (Rattus norvegicus [1]): -23.7 g; Activity (Rattus norvegicus [2]): -23.6 g; Activity (Rattus norvegicus [3]): -10.2 g; Activity (Rattus norvegicus [4]): 25.6 g; Activity (Rattus norvegicus [5]): 9.8 g; fraction unbound [6]: < 0.001; fraction unbound [7]: < 0.001; half-life [8]: 1.8 h; bioavailability [9]: 20%; clearance [10]: 22 mL/min/kg; inhibition (INH) (Cytochrome P450 2C19): Not Active; Stability (Liver microsomes [11]): Stable; Stability (Liver microsomes [12]): Stable; inhibition (INH) (Cytochrome P450 1A2): Not Active; inhibition (INH) (Cytochrome P450 2C9): Not Active; inhibition (INH) (Cytochrome P450 3A4): Not Active; inhibition (INH) (Cytochrome P450 2D6): Not Active
Cc1cccc(Cc2c(=O)[nH]c(=O)[nH]c2[C@H]2CC[C@@H](c3ccccc3)CC2)n1 | 57 nM | 22 nM | 
Cc1cccc(Cc2c(=O)n(C)c(=O)[nH]c2[C@H]2CC[C@@H](c3ccccc3)CC2)c1 | 39 nM | 19 nM | 
O=c1[nH]c([C@H]2CC[C@@H](c3ccccc3)CC2)c(Cc2cccc(C(F)(F)F)c2)c(=O)n1CCO | > 3000 nM | 98 nM | 
O=c1[nH]c(=O)c(Cc2nccs2)c([C@H]2CC[C@@H](c3ccccc3)CC2)[nH]1 | > 300 nM | 139 nM | 
Cn1c(=O)[nH]c([C@H]2CC[C@@H](c3ccccc3)CC2)c(Cc2cccc(C(F)(F)F)c2)c1=O | 162 nM | 16 nM | 
O=c1[nH]c(N2CCC(c3ccccc3)CC2)c(Cc2ccccc2)c(=O)[nH]1 |  | 8 nM | inhibition (INH) (Cytochrome P450 2C19): Not Active; inhibition (INH) (Cytochrome P450 1A2): Not Active; inhibition (INH) (Cytochrome P450 2C9): Not Active; inhibition (INH) (Cytochrome P450 3A4): Not Active; inhibition (INH) (Cytochrome P450 2D6): Not Active; Stability (Liver): Stable
O=c1[nH]c(=O)c(Cc2ccccc2)c([C@H]2CC[C@@H](c3ccccc3)CC2)[nH]1 |  | 32 nM | 
O=c1[nH]c(=O)c(Cc2ncccc2Cl)c([C@H]2CC[C@@H](c3ccccc3)CC2)[nH]1 | 116 nM | 49 nM | 
O=c1[nH]c(=O)c(Cc2ccc(Cl)cc2Cl)c([C@H]2CC[C@@H](c3ccccc3)CC2)[nH]1 | 44 nM | 11 nM | 
O=c1[nH]c(=O)c(Cc2ncccn2)c([C@H]2CC[C@@H](c3ccccc3)CC2)[nH]1 | > 3000 nM | 400 nM | 
Cn1c(=O)[nH]c([C@H]2CC[C@@H](c3ccccc3)CC2)c(Cc2ccccc2)c1=O | 57 nM | 24 nM | 
Cc1ccnc(Cc2c(=O)[nH]c(=O)[nH]c2[C@H]2CC[C@@H](c3ccccc3)CC2)c1 | 44 nM | 21 nM | 
O=c1[nH]c(=O)c(Cc2ccccc2Cl)c([C@H]2CC[C@@H](c3ccccc3)CC2)[nH]1 | 37 nM | 7 nM | 
Cc1cccc(Cc2c(=O)[nH]c(=O)[nH]c2[C@H]2CC[C@@H](c3ccccc3)CC2)c1 | 21 nM | 3 nM | 
CCc1ccccc1Cc1c(=O)[nH]c(=O)[nH]c1[C@H]1CC[C@@H](c2ccccc2)CC1 | 78 nM | 19 nM | 
CS(=O)(=O)c1ccccc1Cc1c(=O)[nH]c(=O)[nH]c1[C@H]1CC[C@@H](c2ccccc2)CC1 |  | 557 nM | 
O=c1[nH]c(=O)c(Cc2c(Cl)cccc2Cl)c([C@H]2CC[C@@H](c3ccccc3)CC2)[nH]1 | 67 nM | 11 nM | 
COc1ccccc1Cc1c(=O)[nH]c(=O)[nH]c1[C@H]1CC[C@@H](c2ccccc2)CC1 | 56 nM | 9 nM | 
O=c1[nH]c(=O)c(Cc2cccc(Cl)c2Cl)c([C@H]2CC[C@@H](c3ccccc3)CC2)[nH]1 | 25 nM | 5 nM | 
Cn1nccc1Cc1c(=O)[nH]c(=O)[nH]c1[C@H]1CC[C@@H](c2ccccc2)CC1 | > 3000 nM | > 1500 nM | 
O=c1[nH]c(=O)c(Cc2cc(Cl)ccc2Cl)c([C@H]2CC[C@@H](c3ccccc3)CC2)[nH]1 | 23 nM | 8 nM | 
O=c1[nH]c(=O)c(Cc2ccccn2)c([C@H]2CC[C@@H](c3ccccc3)CC2)[nH]1 | 337 nM | 188 nM | 
O=c1[nH]c(=O)c(Cc2ccccc2)c([C@H]2CC[C@H](c3ccccc3)CC2)[nH]1 | 44 nM | 4 nM | 
Cc1csc(Cc2c(=O)[nH]c(=O)[nH]c2[C@H]2CC[C@@H](c3ccccc3)CC2)n1 | 119 nM | 28 nM | 
O=c1[nH]c(=O)c(Cc2cccc(C(F)(F)F)n2)c([C@H]2CC[C@@H](c3ccccc3)CC2)[nH]1 | 47 nM | 18 nM | 
Cc1cccc(Cc2c(=O)n(CCN(C)C)c(=O)[nH]c2[C@H]2CC[C@@H](c3ccccc3)CC2)c1 | > 300 nM | 9 nM | 
Cc1cc(Cc2c(=O)[nH]c(=O)[nH]c2[C@H]2CC[C@@H](c3ccccc3)CC2)ccn1 | > 3000 nM | > 50 nM | 
COCCn1c(=O)[nH]c([C@H]2CC[C@@H](c3ccccc3)CC2)c(Cc2cccc(C(F)(F)F)c2)c1=O |  | > 50 nM | 
